For 3 compounds, IC50 results are on record in patent EP0004335A2, “Prostacyclin analogs, process and intermediates for their preparation and their use as medicines” (HOECHST AKTIENGESELLSCHAFT, priority 1978, dated 1979).

pIC50: −log10 of the molar value.

In this experiment the test system is durch Arachidonsäure in Humanblut (in vitro) induzierten Thrombocytenaggregation. The experiment in a line: Inhibition of arachidonic acid-induced platelet aggregation in human blood (in vitro). The experiment is classed as cell-based. Conditions: Konzentration, die eine Aggregation von 50% der vorhandenen Thrombocyten verhindert. From the text: Die Thrombocyten aggregationshemmende Wirkung der erfindungsgemäßen Verbindungen wurde an der durch Arachidonsäure in Humanblut (in vitro) induzierten Thrombocytenaggregation ermittelt. In der folgenden Tabelle ist die Konzentration an dem jeweiligen Prostacyclin-Derivat angegeben, die eine Aggregation von 50% der vorhandenen Thrombocyten verhindert (IC50).
As to `COC(=O)CCCC=C1CC2C(CC(O)C2C=CC(O)C(C)(C)OC2CCCCC2)O1` (stereo not drawn) [Beispiel 2 e), 16-Cyclohexyloxy-16-methyl-18,19-20-trinor-PGI -methylester], the pIC50 – broadly, −log10 of the IC50, conventionally taken in molar units – is 5.00.
The figure for `COCCC(C)(C)C(O)C=CC1C(O)CC2OC(=CCCCC(=O)O)CC21` (stereo not drawn) [Beispiel 3 a), Kaliumsalz des 16,16-Dimethyl-19-oxa-PGI2] is 5.92.
Take `CCOCC(C)(C)C(O)C=CC1C(O)CC2OC(=CCCCC(=O)O)CC21` (stereo not drawn) [Beispiel 3 b), Natriumsalz des 16,16-Dimethyl-18-oxa-PGI2]: the pIC50 is 6.27. Compared with the last compound, the pIC50 is 0.35 log units higher.
